From patent US20170252442A1, “PHOTOHEXER COMPOUNDS AND PHARMACEUTICAL COMPOSITION AND USE THEREOF” (RAINBOW PHARMATECH LLC, priority 2014, published 2017)

Key:
SGC7901 cells = assay: MTT assay, photodynamic therapy on SGC7901 cells; assay type: cell-based, human
Text: (§1) The cells in logarithmic growth phase were collected and inoculated on 24-well culture plates. When reaching 70%-80% confluence, cells were divided randomly into the following groups: control (the parallel control group without photosensitizer and irradiation), irradiation (irradiation treatment alone without photosensitizer); (photosensitizer treatment alone without irradiation), photodynamic treatment (treatment by photosensitizer in combination with irradiation). For the photosensitizer alone treatment group and photodynamic treatment group, an appropriate amount of Photohexer-1 (P-1) or Photohexer-2 (P-2) was respectively added away from light to give a final concentration of 0.8, 1.6, 3.2, 6.4 μM. Each group set 3 replicates. Cells were incubated with the active agent, different treatments were carried out according to the grouping. […] After treatment and digestion of each group of cells, it was inoculated into a 96-well plate at 100 μL/well, and four wells were set for each treatment. MTT assay was performed after 24 h from inoculation: 20 μL MTT solution was added to each well under the condition away from light, and the culture was continued for 4 hours. 150 μL DMSO was added to each well after discarding the supernatant. After 15 min of dissolution, the absorbance value (OD value) was measured using a microplate reader and the relative survival rate of cells was calculated according to the following formula: […]

SW-480 cells = assay: MTT assay, photodynamic therapy on SW-480 cells; assay type: cell-based, human
Text: as §1

SW-620 cells = assay: MTT assay, photodynamic therapy on SW-620 cells; assay type: cell-based, human
Text: as §1

MCF-7/ADR cells = assay: MTT assay, photodynamic therapy on MCF-7/ADR cells; assay type: cell-based, human
Text: as §1

7721 cells = assay: MTT assay, photodynamic therapy on 7721 cells; assay type: cell-based, human
Text: as §1

[1] = Solubility determination in water; assay type: physicochemical; conditions: each ml of water; room temperature; read-out: solubility in water (amount dissolved by each ml of water)
Procedure: The solubility of Photohexer-1 and Photohexer-2 in water was determined by conventional methods in the art.

[2] = 0.8 μM alone treatment, without irradiation
[3] = 0.8 μM combined with 2.6 J/cm^2 light irradiation
[4] = 0.8 μM combined with 5.2 J/cm^2 light irradiation
[5] = 0.8 μM combined with 10.4 J/cm^2 light irradiation
[6] = 1.6 μM alone treatment, without irradiation
[7] = 1.6 μM combined with 2.6 J/cm^2 light irradiation
[8] = 1.6 μM combined with 5.2 J/cm^2 light irradiation
[9] = 1.6 μM combined with 10.4 J/cm^2 light irradiation
[10] = 3.2 μM alone treatment, without irradiation
[11] = 3.2 μM combined with 2.6 J/cm^2 light irradiation
[12] = 3.2 μM combined with 5.2 J/cm^2 light irradiation
[13] = 3.2 μM combined with 10.4 J/cm^2 light irradiation
[14] = 6.4 μM alone treatment, without irradiation
[15] = 6.4 μM combined with 2.6 J/cm^2 light irradiation
[16] = 6.4 μM combined with 5.2 J/cm^2 light irradiation
[17] = 6.4 μM combined with 10.4 J/cm^2 light irradiation

## C=CC1=C(C)c2cc3[nH]c(cc4nc(cc5[nH]c(cc1n2)c(C)c5CCC(=O)[O-])C(CCC(=O)[O-])=C4C)c(C)c3C(C)OCCCCCC.[Na+].[Na+] (stereo not drawn) [Photohexer P-1, 2-(1-hexyloxyethyl)-6,7-bis(propionatesodium)-1,3,5,8-tetramethyl-4-vinylporphyrin]
SGC7901 cells; [2]
  Cell survival rate: 100.39 ± 0.20%
SGC7901 cells; [3]
  Cell survival rate: 90.25 ± 2.16%
SGC7901 cells; [4]
  Cell survival rate: 92.41 ± 0.63%
SGC7901 cells; [5]
  Cell survival rate: 92.26 ± 1.16%
SGC7901 cells; [6]
  Cell survival rate: 99.22 ± 1.37%
SGC7901 cells; [7]
  Cell survival rate: 91.19 ± 2.89%
SGC7901 cells; [8]
  Cell survival rate: 92.29 ± 0.15%
SGC7901 cells; [9]
  Cell survival rate: 89.21 ± 0.24%
SGC7901 cells; [10]
  Cell survival rate: 95.80 ± 1.59%
SGC7901 cells; [11]
  Cell survival rate: 88.70 ± 1.24%
SGC7901 cells; [12]
  Cell survival rate: 85.49 ± 0.99%
SGC7901 cells; [13]
  Cell survival rate: 77.02 ± 0.04%
SGC7901 cells; [14]
  Cell survival rate: 89.77 ± 4.99%
SGC7901 cells; [15]
  Cell survival rate: 77.76 ± 0.22%
SGC7901 cells; [16]
  Cell survival rate: 69.94 ± 0.56%
SGC7901 cells; [17]
  Cell survival rate: 38.34 ± 0.13%
SGC7901 cells; drug-dose and light-intensity dependent
  killing effect of photodynamic therapy: obvious killing effect
SW-480 cells; [2]
  Cell survival rate: 101.14 ± 3.20%
SW-480 cells; [3]
  Cell survival rate: 99.72 ± 3.16%
SW-480 cells; [4]
  Cell survival rate: 95.61 ± 3.11%
SW-480 cells; [5]
  Cell survival rate: 89.28 ± 3.01%
SW-480 cells; [6]
  Cell survival rate: 100.83 ± 2.47%
SW-480 cells; [7]
  Cell survival rate: 97.08 ± 2.89%
SW-480 cells; [8]
  Cell survival rate: 94.55 ± 2.77%
SW-480 cells; [9]
  Cell survival rate: 85.85 ± 2.68%
SW-480 cells; [10]
  Cell survival rate: 98.02 ± 2.59%
SW-480 cells; [11]
  Cell survival rate: 96.00 ± 2.24%
SW-480 cells; [12]
  Cell survival rate: 85.27 ± 1.89%
SW-480 cells; [13]
  Cell survival rate: 65.70 ± 2.01%
SW-480 cells; [14]
  Cell survival rate: 91.27 ± 1.09%
SW-480 cells; [15]
  Cell survival rate: 77.99 ± 1.22%
SW-480 cells; [16]
  Cell survival rate: 65.38 ± 1.32%
SW-480 cells; [17]
  Cell survival rate: 57.31 ± 1.03%
SW-620 cells; [2]
  Cell survival rate: 101.33 ± 3.20%
SW-620 cells; [3]
  Cell survival rate: 100.74 ± 3.46%
SW-620 cells; [4]
  Cell survival rate: 99.53 ± 3.71%
SW-620 cells; [5]
  Cell survival rate: 94.65 ± 4.04%
SW-620 cells; [6]
  Cell survival rate: 100.99 ± 2.47%
SW-620 cells; [7]
  Cell survival rate: 96.64 ± 2.79%
SW-620 cells; [8]
  Cell survival rate: 91.84 ± 2.97%
SW-620 cells; [9]
  Cell survival rate: 87.51 ± 3.16%
SW-620 cells; [10]
  Cell survival rate: 98.23 ± 1.59%
SW-620 cells; [11]
  Cell survival rate: 91.39 ± 2.18%
SW-620 cells; [12]
  Cell survival rate: 87.50 ± 1.69%
SW-620 cells; [13]
  Cell survival rate: 82.58 ± 2.31%
SW-620 cells; [14]
  Cell survival rate: 94.83 ± 1.09%
SW-620 cells; [15]
  Cell survival rate: 86.70 ± 1.07%
SW-620 cells; [16]
  Cell survival rate: 75.53 ± 1.03%
SW-620 cells; [17]
  Cell survival rate: 68.33 ± 1.11%
MCF-7/ADR cells
  cell toxicity: significant cell toxicity
MCF-7/ADR cells; [2]
  Cell survival rate: 100.36 ± 3.70%
MCF-7/ADR cells; [3]
  Cell survival rate: 55.89 ± 3.97%
MCF-7/ADR cells; [4]
  Cell survival rate: 41.47 ± 4.88%
MCF-7/ADR cells; [5]
  Cell survival rate: 37.45 ± 4.34%
MCF-7/ADR cells; [6]
  Cell survival rate: 93.95 ± 2.47%
MCF-7/ADR cells; [7]
  Cell survival rate: 53.43 ± 2.96%
MCF-7/ADR cells; [8]
  Cell survival rate: 38.42 ± 2.51%
MCF-7/ADR cells; [9]
  Cell survival rate: 32.58 ± 3.54%
MCF-7/ADR cells; [10]
  Cell survival rate: 81.01 ± 1.58%
MCF-7/ADR cells; [11]
  Cell survival rate: 50.99 ± 2.31%
MCF-7/ADR cells; [12]
  Cell survival rate: 36.95 ± 1.89%
MCF-7/ADR cells; [13]
  Cell survival rate: 31.79 ± 2.65%
MCF-7/ADR cells; [14]
  Cell survival rate: 46.84 ± 1.02%
MCF-7/ADR cells; [15]
  Cell survival rate: 45.48 ± 1.04%
MCF-7/ADR cells; [16]
  Cell survival rate: 33.47 ± 1.41%
MCF-7/ADR cells; [17]
  Cell survival rate: 27.27 ± 1.07%
7721 cells; [2]
  Cell survival rate: 101.56 ± 4.08%
7721 cells; [3]
  Cell survival rate: 97.88 ± 4.08%
7721 cells; [4]
  Cell survival rate: 95.52 ± 3.42%
7721 cells; [5]
  Cell survival rate: 94.75 ± 4.13%
7721 cells; [6]
  Cell survival rate: 100.75 ± 4.14%
7721 cells; [7]
  Cell survival rate: 93.31 ± 3.99%
7721 cells; [8]
  Cell survival rate: 92.36 ± 2.91%
7721 cells; [9]
  Cell survival rate: 91.35 ± 3.59%
7721 cells; [10]
  Cell survival rate: 97.51 ± 3.98%
7721 cells; [11]
  Cell survival rate: 94.92 ± 3.80%
7721 cells; [12]
  Cell survival rate: 92.13 ± 2.77%
7721 cells; [13]
  Cell survival rate: 88.59 ± 2.96%
7721 cells; [14]
  Cell survival rate: 96.52 ± 3.94%
7721 cells; [15]
  Cell survival rate: 94.42 ± 3.87%
7721 cells; [16]
  Cell survival rate: 90.25 ± 4.07%
7721 cells; [17]
  Cell survival rate: 84.98 ± 1.97%
7721 cells; alone or in combination with light irradiation
  toxic and side effects: no obvious toxic and side effects
[1]
  solubility: ~3300 µg/mL
